Data reported in article PMC10746543, “Design principles for cyclin K molecular glue degraders” (Nature Chemical Biology, 2023).
Several values for one entry are separate records, joined by “and”; a condition that tells them apart may be missing. Equal values may be shown once. Read-outs that look alike come from different tables or passages of the source. Each block holds one molecule with its values, some of them ahead of it.

What was measured:
[1] = target: T1, CDK12–cyclin K and DDB1 (Homo sapiens, UniProt Q16531+Q9NYV4, K965R); test: TR-FRET ternary complex formation assay (compound titration); type: binding; details: for TR-FRET signal at compound concentration: replicate titrations
T1 construct: His6–CDK12 (a.a. 713–1,052); full-length or beta-propeller B domain deletion (ΔBPB: a.a. 396–705 deleted) constructs of His6–DDB1ΔBPB, StrepII–Avi–DDB1, or His6–Spy–DDB1; made in house; host or cells: Trichoplusia ni High Five insect cells (baculovirus)
How it was run: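 A time delay of 70 μs preceded acquisition, limiting background fluorescence; the ratio of emission at 520 versus 490 nm gave the TR-FRET value.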

[2] = test system: cyclin K–eGFP degradation reporter; test: Cyclin K reporter stability analysis (dual-color cyclin K–eGFP reporter); type: cell-based, human; details: source data sheet correlations; read-out: DC50
How it was run: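 First, reporter-bearing HEK293T–Cas9 cells are plated at 1 × 10^6 ml^−1. Next, drug or vehicle is added for 5 h. Finally, geometric-mean eGFP and mCherry signals of round, mCherry-positive cells are measured cytometrically, and their ratio is referenced to the DMSO average.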

[3] = test system: HEK293T cells; test: Drug sensitivity assay (CellTiter-Glo viability) with or without MLN4924 pretreatment; type: cell-based, human; details: Supplementary Table 2; for EC50: Homo sapiens, HEK-293T, HEK293T viability, 72 h, compound alone, read-out: Cellular assays EC50; for Toxicity rescue: MLN4924-mediated cytotoxicity rescue, 10 µM used where n.d.
How it was run: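 Cas9-expressing HEK293T cells receive either vehicle or 100 nM MLN4924, then compounds 2 h afterwards. After three days, luminescence-based viability is measured and calculated relative to DMSO.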

[4] = in vitro complex formation, 50 nM CDK12–cyclin K, 100 nM DDB1, text and figures, read-out: TR-FRET EC50
[5] = sheet MOESM7, read-out: log TR-FRET EC50 (converted)
[6] = source data sheet correlations, read-out: TR-FRET EC50

T1 sequence (Q9NYV4 713-1052 K965R): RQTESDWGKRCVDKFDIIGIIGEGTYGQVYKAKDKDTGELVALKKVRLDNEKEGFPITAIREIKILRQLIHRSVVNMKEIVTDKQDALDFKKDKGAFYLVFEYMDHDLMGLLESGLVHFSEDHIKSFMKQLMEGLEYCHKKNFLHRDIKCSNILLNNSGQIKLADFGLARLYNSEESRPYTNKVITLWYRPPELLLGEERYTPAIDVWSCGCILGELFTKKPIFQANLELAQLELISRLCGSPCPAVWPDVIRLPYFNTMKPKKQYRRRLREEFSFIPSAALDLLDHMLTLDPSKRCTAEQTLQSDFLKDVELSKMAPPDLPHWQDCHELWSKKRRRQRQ
T1 sequence (O75909 1-267 partner): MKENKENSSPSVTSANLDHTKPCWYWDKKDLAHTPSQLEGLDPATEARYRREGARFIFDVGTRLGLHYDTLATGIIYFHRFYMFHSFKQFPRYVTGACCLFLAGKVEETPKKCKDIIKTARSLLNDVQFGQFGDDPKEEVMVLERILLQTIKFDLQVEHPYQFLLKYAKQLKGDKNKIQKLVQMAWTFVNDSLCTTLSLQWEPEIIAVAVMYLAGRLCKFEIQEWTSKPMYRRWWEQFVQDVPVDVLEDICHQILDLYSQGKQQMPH
T1 sequence (Q16531 whole entry): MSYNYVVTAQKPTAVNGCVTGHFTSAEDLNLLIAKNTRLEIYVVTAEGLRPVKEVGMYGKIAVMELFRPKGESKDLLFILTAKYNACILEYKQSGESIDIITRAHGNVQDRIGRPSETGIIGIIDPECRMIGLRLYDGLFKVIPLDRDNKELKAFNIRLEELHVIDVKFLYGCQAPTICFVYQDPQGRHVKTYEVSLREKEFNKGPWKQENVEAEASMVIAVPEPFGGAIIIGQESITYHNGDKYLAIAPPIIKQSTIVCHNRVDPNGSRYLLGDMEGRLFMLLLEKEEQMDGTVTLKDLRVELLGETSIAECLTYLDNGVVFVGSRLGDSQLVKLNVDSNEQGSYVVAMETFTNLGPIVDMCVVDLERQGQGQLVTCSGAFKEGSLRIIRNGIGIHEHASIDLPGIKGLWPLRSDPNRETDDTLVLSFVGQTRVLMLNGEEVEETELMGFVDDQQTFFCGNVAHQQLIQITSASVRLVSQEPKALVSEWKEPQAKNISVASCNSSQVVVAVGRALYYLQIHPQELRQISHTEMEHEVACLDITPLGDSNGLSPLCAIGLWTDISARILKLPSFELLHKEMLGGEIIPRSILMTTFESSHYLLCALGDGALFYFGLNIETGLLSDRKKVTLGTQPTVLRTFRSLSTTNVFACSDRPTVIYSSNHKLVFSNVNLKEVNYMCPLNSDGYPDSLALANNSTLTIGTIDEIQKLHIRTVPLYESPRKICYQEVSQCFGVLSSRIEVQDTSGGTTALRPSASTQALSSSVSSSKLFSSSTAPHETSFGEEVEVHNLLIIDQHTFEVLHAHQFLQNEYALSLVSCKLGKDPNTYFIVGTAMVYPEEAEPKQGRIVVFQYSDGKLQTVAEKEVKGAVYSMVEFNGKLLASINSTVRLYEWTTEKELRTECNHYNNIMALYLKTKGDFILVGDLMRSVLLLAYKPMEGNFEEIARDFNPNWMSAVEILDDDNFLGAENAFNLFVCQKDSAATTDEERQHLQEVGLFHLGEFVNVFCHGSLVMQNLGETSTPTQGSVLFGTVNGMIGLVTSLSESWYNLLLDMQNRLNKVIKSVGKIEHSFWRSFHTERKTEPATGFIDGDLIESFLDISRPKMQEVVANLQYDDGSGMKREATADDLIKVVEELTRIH

TR-FRET signal at compound concentration ([1]; compound concentration 0.468 nM): 0.2972 and 0.3391
TR-FRET signal at compound concentration ([1]; compound concentration 2.16 nM): 0.4654 and 0.4243
TR-FRET signal at compound concentration ([1]; compound concentration 3.6 nM): 0.6432 and 0.6311
TR-FRET signal at compound concentration ([1]; compound concentration 7.92001 nM): 1.023 and 1.017
TR-FRET signal at compound concentration ([1]; compound concentration 15.84 nM): 1.68 and 1.67
TR-FRET signal at compound concentration ([1]; compound concentration 30.96 nM): 2.537 and 2.526
TR-FRET signal at compound concentration ([1]; compound concentration 62.6401 nM): 3.223 and 3.119
TR-FRET signal at compound concentration ([1]; compound concentration 125.28 nM): 3.664 and 3.458
TR-FRET signal at compound concentration ([1]; compound concentration 244.8 nM): 3.773 and 3.684
TR-FRET signal at compound concentration ([1]; compound concentration 993.601 nM): 3.764 and 3.722
TR-FRET signal at compound concentration ([1]; compound concentration 2001.6 nM): 3.801 and 3.784
EC50 [1, 4]: 0.021 ± 0.001 µM
EC50 [1, 5]: 0.0214 µM
EC50 [1, 6]: 0.0214 µM
DC50 [2]: 0.023 µM
SMILES: CC[C@H](CO)Nc1nc(NCc2ccc(-c3ccccn3)c(=O)[nH]2)c2ncn(C(C)C)c2n1 [WX3]
EC50 [3]: 0.179 µM
Toxicity rescue [3]: 954%

TR-FRET signal at compound concentration ([1]; compound concentration 4.68 nM): 0.2788 and 0.2836
TR-FRET signal at compound concentration ([1]; compound concentration 21.6 nM): 0.5021 and 0.5027
TR-FRET signal at compound concentration ([1]; compound concentration 36 nM): 0.8511 and 0.8473
TR-FRET signal at compound concentration ([1]; compound concentration 79.2001 nM): 1.261 and 1.263
TR-FRET signal at compound concentration ([1]; compound concentration 158.4 nM): 1.515 and 1.577
TR-FRET signal at compound concentration ([1]; compound concentration 309.6 nM): 1.862 and 1.944
TR-FRET signal at compound concentration ([1]; compound concentration 626.401 nM): 2.0566 and 2.128
TR-FRET signal at compound concentration ([1]; compound concentration 1252.8 nM): 2.108 and 2.242
TR-FRET signal at compound concentration ([1]; compound concentration 2448 nM): 2.161 and 2.2916
TR-FRET signal at compound concentration ([1]; compound concentration 9936.01 nM): 2.174 and 2.318
TR-FRET signal at compound concentration ([1]; compound concentration 20016 nM): 2.132 and 2.191
EC50 [1, 4]: 0.079 ± 0.006 µM
EC50 [1, 5]: 0.0785 µM
EC50 [1, 6]: 0.0785 µM
DC50 [2]: 0.365 µM
SMILES: CC[C@H](CO)Nc1nc(NCc2cnc(-c3ccccn3)cc2C2OCCO2)c2ncn(C(C)C)c2n1 [WX4]
EC50 [3]: 1.18 µM
Toxicity rescue [3]: 432%
